Results as given in patent publication US20220362348A1, “LACTOFERRIN, DERIVED PEPTIDE THEREOF AND METHOD THEREOF FOR INHIBITING AND/OR ALLEVIATING LIPID SYNTHESIS” (RENORIGIN INNOVATION INSTITUTE CO., LTD., priority 2021, published 2022).

Tested on: Human sebocytes
Assay: Neutral fat detection (Nile red staining, fluorescence intensity) in linoleic acid-induced sebocytes
Format: cell-based
Details: for concentration dependence of inhibition of LA-induced lipid content: FIGS. 1-4, lactoferrin 100-400 μg/mL, peptides 25-100 μg/mL
Procedure: Human sebocytes (Cat. No. 36079-01, Celprogen, Torrance, Calif., USA) were cultured in Dulbecco's Modified Eagle Medium (DMEM): Nutrient Mixture F-12 (DMEM/F12) purchased from Thermo Fisher Scientific Limited (Barrington, Ill., USA), 10% fetal bovine serum (FBS) purchased from Gibco, Grand Island, N.Y., USA and penicillin/streptomycin (100 IU/50 […]), incubated at 37° C. in the 5% CO2 atmosphere.
Human sebocytes were implanted in 24- or 96-well plates. After 24 hours of culture, the cells were divided into a negative control group, a positive control group and an experimental group. […] The treated human sebocytes were cultured for two days. Human sebocytes were fixed with 4% formaldehyde at room temperature. After 60 minutes of fixation, the cells were washed with PBS and stained with Nile Red solution (1 μg/ml in PBS) at 37° C. for 15 minutes. Next, the cells were washed and observed under a fluorescent microscope. Fluorescence intensity is measured with fluorometer Spectra Max i3.

[1] = FIG. 5, 0.1 mM LA + 50 μg/mL peptide
[2] = FIG. 5, 0.1 mM LA + 50 μg/mL peptide, negative control about 1.0, positive control about 2.5
[3] = FIGS. 2-4, 0.1 mM LA + 25 to 100 μg/mL peptide
[4] = FIGS. 2-4 D, 0.1 mM LA + 25 μg/mL peptide, two days, negative control about 1.0
[5] = FIGS. 2-4 D, 0.1 mM LA + 50 μg/mL peptide, two days, negative control about 1.0
[6] = FIGS. 2-4 D, 0.1 mM LA + 100 μg/mL peptide, two days, negative control about 1.0

| Compound | lipid content reduced compared with positive control group (LA) [1] [%] | fluorescence intensity (lipid content, Nile red) [2] | concentration dependence of inhibition of LA-induced lipid content | lipid content reduced compared with positive control group (LA) [3] [%] | fluorescence intensity (lipid content, Nile red) [4] | fluorescence intensity (lipid content, Nile red) [5] | fluorescence intensity (lipid content, Nile red) [6] | lipid content induced by LA relative to negative control group (0.1 mM linoleic acid (LA) alone) |
| --- | --- | --- | --- | --- | --- | --- | --- | --- |
| lactoferrin peptide 69-75: Derived peptide of lactoferrin comprising the amino acid sequence of SEQ ID NO: 02 (RDPYKLR; Lactoferrin derived peptide) | 40 | about 1.5 | dose-dependent manner | 25 | about 1.5 | about 1.5 | about 1.5 |  |
| CCCCC/C=C\C/C=C\CCCCCCCC(=O)O [LA, linoleic acid, reference compound] |  |  |  |  |  |  |  | more than 2 times |
| lactoferrin peptide 85-91: Derived peptide of lactoferrin comprising the amino acid sequence of SEQ ID NO: 03 (KESPQTH; Lactoferrin derived peptide) | 40 | about 1.5 | dose-dependent manner | 25 | about 1.5 | about 1.5 | about 1.5 |  |
| lactoferrin peptide 695-701: Derived peptide of lactoferrin comprising the amino acid sequence of SEQ ID NO: 04 (KKCSTSP; Lactoferrin derived peptide) | 40 | about 1.5 | dose-dependent manner | 25 | about 1.5 | about 1.5 | about 1.5 |  |
